Source: patent publication US20110237605A1, “Molecular Crystal of (4-(1,8-Naphthyridin-2-YL)Piperidin-1-YL)Pyrimidine Derivative” (priority 2010, published 2011)

Assay: Physical (polymorph) stability of suspension to bead milling and autoclaving, followed by XRPD
Assay type: physicochemical
Experimental: The following experiment evidences such stability of the claimed molecular crystal.
A 30 mg/ml suspension of the compound having Formula I (referred to as “BOL-303050”) was made in PBS-0.15% Polysorbate 80 and put in a vial. The contents of the vial were milled by 1 mm zirconia milling beads for 5 times, 2 minutes each at 2400 rpm in a DAC 150 FV Speedmixer and shaken to suspend the drug. An aliquot was withdrawn for XRPD (see FIG. 4, suspension milled). The withdrawn aliquot was centrifuged and dried before XRPD scan.
The remainder of the vial contents was autoclaved at 121° c. for 30 minutes. After autoclaving another sample was removed for XRPD (see FIG. 4, suspension milled and autoclaved). Sample was centrifuged and dried before XRPD scan.
To the remaining sample, 1 mm zirconia milling beads were added and the sample was milled 5 times, for 2 minutes each at 2400 rpm in a DAC 150 FV Speedmixer. After bead milling, a sample was removed for XRPD (see FIG. 4, suspension milled, autoclaved then milled again). Sample was centrifuged and dried before XRPD scan.
The remainder was autoclaved at 121° C. for 30 minutes (see FIG. 4, suspension milled, autoclaved, milled again, then autoclaved). Sample was centrifuged and dried before XRPD scan.
Samples were compared to the XRPD spectrum of the original API sample.

SMILES	polymorphic change by XRPD on autoclaving (30 mg/ml suspension in PBS-0.15% Polysorbate 80, milled, autoclaved at 121° C. for 30 minutes (initial cycle))	effect of milling on drug polymorph by XRPD (1 mm zirconia milling beads, 5 times, 2 minutes each at 2400 rpm)	stability of crystal form, comparison of XRPD spectra (FIG. 4) (further milling and/or autoclaving)	effect of subsequent autoclaving on polymorph by XRPD (milled, autoclaved, milled again, then autoclaved at 121° C. for 30 minutes)
COc1ccc(S(=O)(=O)N[C@@H](CNc2nc(C)nc(N3CCC(c4ccc5c(n4)NCCC5)CC3)c2C)C(=O)O)cc1 [BOL-303050, (S)-3-(2,5-dimethyl-6-(4-(5,6,7,8-tetrahydro-1,8-naphthyridin-2-yl)piperidin-1-yl)pyrimidin-4-ylamino)-2-(4-methoxyphenylsulfonamido)propanoic acid]	polymorphic changes occurred only during the initial autoclave cycle	did not affect the drug polymorph	–	–
COc1ccc(S(=O)(=O)N[C@@H](CNc2nc(C)nc(N3CCC(c4ccc5c(n4)NCCC5)CC3)c2C)C(=O)O)cc1 [claimed novel drug polymorph, (S)-3-(2,5-dimethyl-6-(4-(5,6,7,8-tetrahydro-1,8-naphthyridin-2-yl)piperidin-1-yl)pyrimidin-4-ylamino)-2-(4-methoxyphenylsulfonamido)propanoic acid]	–	–	stable	did not affect the claimed novel drug polymorph
